According to patent publication US12161632B2, “Compositions and methods of treating cardiac fibrosis with ifetroban” (Cumberland Pharmaceuticals Inc., priority 2014, dated 2024):
Entries after “also recorded” stand apart in the source; their conditions may differ. Where two headings read alike, the source gives them in different places.

Assays:
RV gene expression [1] = assay: RV RNA expression arrays in PAB/sham mice (Example V); assay type: in vivo; conditions: 30 mg/kg/day, 14 days
Experimental: Following sacrifice, right ventricular hypertrophy was assessed in each animal as a percentage of heart weight. A random fraction of the right hearts were fixed in formalin for histology and examined for indices of fibrosis; other hearts were snap frozen for gene expression analysis via RNA microarray. Right hearts and lungs were collected for analysis of protein expression and gene expression array. Left lungs were fixed and stained. Platelet deposition was examined in small pulmonary artery vessels. The remaining organs were harvested and frozen in liquid nitrogen for potential gene expression analysis.
As part of this study, RNA extracted and expression analysis was performed using Mouse Genone 2.0 Affymetrix expression arrays. (FIG. 4C). The Array design was 2×2×2: Sham/Banded×Vehicle/Ifetroban×M/F. In total, there were 8 arrays; each array was a pool of RV from 3 mice. Only mice with an RVSP>30 were used for the banded groups. Banding itself altered 199 genes (ABS (Diff in averages)—Sum of standard deviations)>0.4 comparing vehicle banded to sham, and expression of 49 of those genes was enhanced by ifetroban (difference >0.4) and expression of 29 of those genes was attenuated by ifetroban (difference >0.4). […] Res., 2011 Jul. […] 15; 45(4):511-8.

[2] = tested on: pulmonary artery banded wild-type mice; assay: Pulmonary artery banding, two or six weeks of treatment: histology and echocardiography (Example VI); assay type: in vivo; conditions: PAB mice, 30 mg/kg/day, 6 weeks
Experimental: Wild-type mice underwent pulmonary artery banding followed by two weeks or six weeks of treatment with ifetroban (30 mg/kg/day via the drinking water) vs. control (plain drinking water). The pulmonary artery band mimics pulmonary hypertension and right heart failure.

RV gene expression [3] = assay: Gene expression arrays on pooled RV from sham or PAB mice (Example VII); assay type: in vivo
Text: To determine the mechanism through which ifetroban reduced fibrosis and protected RV contractility, we performed gene expression arrays on sets of pooled RV from mice with sham or PAB surgery, with and without drug treatment. By principal components analysis strong effect of banding was found, and an effect of ifetroban only in mice that had undergone banding. […] In particular, there were changes in gene expression associated with adhesion, collagen organization, extracellular structure, and developmental processes.

[4] = tested on: RV proteins (TP receptor, MHC, phospho-SMAD2/3, TSP-4); conditions: for TSP-4 protein expression in RV: high dose 25 mg/kg/day
Experimental: Mice underwent pulmonary arterial banding (PAB) or sham surgery, and were treated for 2 weeks with vehicle or ifetroban (competitive antagonist of TPα/TPβ) in the drinking water.
The effect of ifetroban treatment on known fibrotic and anti-fibrotic signaling pathways was examined.
In another arm of this example, low dose (3 mg/kg/day) ifetroban was administered to mice via the drinking water for 2 weeks following pulmonary artery banding.

[5] = PAB mice, 25 mg/kg/day, 2 weeks
[6] = only in the context of pressure overload

For `CCCCCNC(=O)c1coc([C@H]2[C@@H](Cc3ccccc3CCC(=O)O)[C@@H]3CC[C@H]2O3)n1` [ifetroban, [1S-(1α,2α,3α,4α)]-2-[[3-[4-[(Pentylamino)carbonyl]-2-oxazolyl]-7-oxabicyclo[2.2.1]hept-2-yl]methyl]-benzenepropanoic acid], the “number of the 199 banding-altered genes whose expression was attenuated (difference >0.4)” value (RV gene expression [1]; banded RV pools) was 29 genes, the “number of the 199 banding-altered genes whose expression was enhanced (difference >0.4)” value (RV gene expression [1]; banded RV pools) was 49 genes and the “expression of FBX032” value (RV gene expression [1]; banded RV) was “reduces the expression of FBX032”. For the same compound, the “expression of Nmrk2, Meox1, Nkd2, and Pkhd1” value (RV gene expression [1]; banded RV) was “enhances the expression of other genes”, the “expression of PDGF” value (RV gene expression [1]; banded RV) was “reduces the expression of PDGF” and the “expression of genes involved with inhibition of TGF-Beta, Asporin and Ltbp2” value (RV gene expression [1]; banded RV) was “enhanced the expression”. For the same compound, the “expression of genes related to collagen and cell-cell adhesion, particularly thrombospondin-4 (Thbs4)” value (RV gene expression [1]; banded RV) was “enhances the expression”, the “expression of pro-fibrotic and inflammatory genes” value (RV gene expression [1]; banded mice) was “decreases expression” and the “expression of pro-muscularization genes” value (RV gene expression [1]; banded mice) was “increases expression”. The “cardiomyocyte diameter in the right ventricle” value [2] was “protected against increases in cardiomyocyte diameter”, the “echocardiography, left ventricular cardiac function (end diastolic/systolic volume, stroke volume, ejection fraction, fractional shortening)” value [2] was “cardiac function values similar to the animals that underwent sham surgery; also recorded: echo values similar to sham surgery animals” and the right ventricular fibrosis [2] was “reduced right ventricular fibrosis”. The “principal components analysis of RV gene expression” value (RV gene expression [3]; 25 mg/kg/day, 2 weeks) was “strong effect of ifetroban only in mice with banding”, the “Thbs4 expression (mRNA)” value (RV gene expression [3]; PAB RV only) was “strongly enhances” and the “expression of antifibrotic genes” value (RV gene expression [3]; PAB mice) was “increased expression”. The “expression of genes associated with fibrosis” value (RV gene expression [3]; PAB mice) was “reduced expression”, the “expression of genes associated with myogenic differentiation” value (RV gene expression [3]; PAB mice versus banded controls) was “enhanced” and the “RV expression of Cd14, Tlr8 and other pro-inflammatory genes” value (RV gene expression [3]; [5]) was “decreased RV expression”. For the same compound, the “expression of genes associated with inflammatory cell recruitment” value (RV gene expression [3]; [6]) was “reduced expression”, the “genes associated with adaptive remodeling” value (RV gene expression [3]; [6]) was “ifetroban-induced genes associated with adaptive remodeling” and the “gene expression in mice with only sham surgeries” value (RV gene expression [3]; sham, 25 mg/kg/day, 2 weeks) was “did not significantly change gene expression”. The “TP receptor expression in the RV (Western blot)” value ([4]; 2 weeks following PAB or drug treatment) was “remained constant”, the “phospho-SMAD2/3 associated with PAB” value ([4]; PAB mice versus vehicle-treated mice) was “less phospho-SMAD2/3” and the “localization of TSP-4 in RV” value ([4]; PAB mice, 25 mg/kg/day) was “increased cardiomyocyte expression of TSP-4”. For the same compound, the “α-MHC protein expression in RV (Western blot)” value [4, 5] was “no change in α-MHC expression”, the “β-MHC protein expression in RV (Western blot)” value [4, 5] was “strongly induced” and the “induction of the pro-fibrotic TGF-beta pathway” value ([4]; PAB mice, 2 weeks) was “blocked induction”. The “TSP-4 protein expression in RV” value ([4]; PAB mice, 2 weeks, 25 mg/kg/day) was “increased TSP-4 protein; also recorded: increases the expression of antifibrotic TSP-4”, the “TSP-4 protein expression in RV” value ([4]; PAB mice, 2 weeks, listed as Ifetroban, 25 mg/kg/day) was “increased expression of anti-fibrotic thrombospondin-4” and the “TSP-4 expression in RV (Western blot densitometry)” value ([4]; PAB mice, low dose 3 mg/kg/day, 2 weeks) was “does not”.
